Assay results as given in patent US20250368667A1, “USP1 INHIBITOR” (Shanghai Qilu Pharmaceutical Research and Development …, priority 2022, published 2025).

target: recombinant human His6-USP1/His6-UAF1 composite protein (Homo sapiens (Human), UniProt O94782); assay: USP1 enzyme activity detection (Ub-Rho fluorescence); assay type: biochemical; details: USP1/UAF1, Ub-Rho substrate 300 nM, 1 hour pre-incubation; read-out: IC50 (enzymatic inhibition of USP1)
Sequence (O94782 whole entry): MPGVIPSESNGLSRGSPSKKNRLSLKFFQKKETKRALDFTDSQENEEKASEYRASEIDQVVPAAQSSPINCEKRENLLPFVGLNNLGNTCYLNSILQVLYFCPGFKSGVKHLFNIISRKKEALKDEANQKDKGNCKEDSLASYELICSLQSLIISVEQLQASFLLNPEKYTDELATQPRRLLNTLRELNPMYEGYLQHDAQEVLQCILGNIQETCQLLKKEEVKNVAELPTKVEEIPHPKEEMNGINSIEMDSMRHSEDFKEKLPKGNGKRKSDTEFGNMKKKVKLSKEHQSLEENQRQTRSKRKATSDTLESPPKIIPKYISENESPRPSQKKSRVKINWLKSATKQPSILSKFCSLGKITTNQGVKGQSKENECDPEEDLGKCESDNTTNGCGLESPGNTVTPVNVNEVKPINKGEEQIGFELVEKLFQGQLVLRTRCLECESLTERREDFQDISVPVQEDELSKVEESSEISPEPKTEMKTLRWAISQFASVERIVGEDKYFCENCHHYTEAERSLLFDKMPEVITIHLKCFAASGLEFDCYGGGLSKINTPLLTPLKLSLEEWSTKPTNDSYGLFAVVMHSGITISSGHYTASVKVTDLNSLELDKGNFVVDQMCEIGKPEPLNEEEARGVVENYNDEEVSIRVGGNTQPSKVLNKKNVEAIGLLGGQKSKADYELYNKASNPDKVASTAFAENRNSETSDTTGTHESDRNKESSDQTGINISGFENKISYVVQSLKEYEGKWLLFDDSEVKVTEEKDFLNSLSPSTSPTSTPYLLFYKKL
Sequence (Q8TAF3 whole entry partner): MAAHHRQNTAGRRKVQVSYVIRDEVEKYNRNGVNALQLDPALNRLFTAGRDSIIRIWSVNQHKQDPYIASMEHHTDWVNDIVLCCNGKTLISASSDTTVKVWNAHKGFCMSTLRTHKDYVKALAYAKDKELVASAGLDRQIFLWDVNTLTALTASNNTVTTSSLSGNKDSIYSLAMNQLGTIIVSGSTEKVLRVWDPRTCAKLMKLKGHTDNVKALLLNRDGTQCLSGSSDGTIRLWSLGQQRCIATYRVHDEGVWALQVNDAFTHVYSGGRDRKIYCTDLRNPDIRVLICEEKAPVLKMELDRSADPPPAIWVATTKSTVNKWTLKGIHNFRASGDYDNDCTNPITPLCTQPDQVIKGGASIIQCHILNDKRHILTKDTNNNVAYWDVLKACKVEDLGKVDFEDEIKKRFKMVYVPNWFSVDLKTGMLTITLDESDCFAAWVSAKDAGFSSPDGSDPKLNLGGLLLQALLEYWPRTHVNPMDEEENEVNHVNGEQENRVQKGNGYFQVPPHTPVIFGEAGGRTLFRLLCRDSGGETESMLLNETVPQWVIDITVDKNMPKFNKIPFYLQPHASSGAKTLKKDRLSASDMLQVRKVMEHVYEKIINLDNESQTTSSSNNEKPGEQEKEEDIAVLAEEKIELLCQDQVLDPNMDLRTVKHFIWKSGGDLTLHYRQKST

| IC50 | Structure (SMILES) |
| --- | --- |
| 5.91 nM | [2H]C([2H])([2H])n1cc2c3cnc(-c4c(OC)ncnc4C4CC4)nc3n(Cc3ccc(-c4nc(C(F)(F)F)cn4C(C)C)c(F)c3)c2n1 [Compound 145] |
| 6.01 nM | COc1ncnc(C2CC2)c1-c1ncc2c3ccccc3n([C@@H](C)c3ccc(-c4nc(C(F)(F)F)cn4C(C)C)cc3)c2n1 [Compound 13-P1] |
| 99.1 nM | COc1ncnc(C2CC2)c1-c1ncc2c3ccc(C#N)cc3n(Cc3cc(O)c4c(c3)OCCn3cc(C(F)(F)F)nc3-4)c2n1 [Compound 77] |
| 4.84 nM | CCn1cc(C(F)(F)F)nc1-c1ccc(Cn2c3cc(C#N)ccc3c3cnc(-c4c(OC)ncnc4C4CC4)nc32)cc1 [Compound 50] |
| 1 nM | COc1ncnc(C2CC2)c1-c1ncc2c3ccncc3n(Cc3ccc(-c4nc(C(F)(F)F)c(C)n4C)cc3)c2n1 [Compound 151] |
| 9.88 nM | COc1ncnc(C2CC2)c1-c1ncc2c3ccc(Cl)cc3n(Cc3ccc(-c4nc(C(F)(F)F)cn4C)cc3)c2n1 [Compound 54] |
| 22 nM | COc1ncnc(C2CC2)c1-c1ncc2c3cn(C)nc3n(Cc3ccc4c(c3)C3C(Cn5cc(C(F)(F)F)nc5-4)C3(F)F)c2n1 (centres unmarked) [Compound 133] |
| 3.6 nM | COc1ncnc(C2CC2)c1-c1ncc2c3cccc(OC)c3n(Cc3ccc(-c4nc(C(F)(F)F)cn4C(C)C)cc3)c2n1 [Compound 46] |
| 4.39 nM | COc1ncnc(C2CC2)c1-c1ncc2c3ccncc3n(Cc3ccc(-c4nc(C(F)(F)F)cn4C)cc3)c2n1 [Compound 78] |
| 1.62 nM | CCn1cc(C(F)(F)F)nc1-c1ccc(Cn2c3cnccc3c3cnc(-c4c(OC)ncnc4C4CC4)nc32)cc1 [Compound 66] |
| 7.21 nM | COc1ncnc(C2CC2)c1-c1ncc2c3ccc(NS(C)(=O)=O)cc3n(Cc3ccc(-c4nc(C(F)(F)F)cn4C)cc3)c2n1 [Compound 59] |
| 4 nM | COc1ncnc(C2CC2)c1-c1ncc2c3ccc(P4(=O)CCCC4)cc3n(Cc3ccc(-c4nc(C(F)(F)F)cn4C(C)C)c(F)c3)c2n1 [Compound 141] |
| 6.85 nM | COc1ncnc(C2CC2)c1-c1ncc2c3c(F)cccc3n(Cc3ccc(-c4nc(C(F)(F)F)cn4C(C)C)cc3)c2n1 [Compound 4, 2-(4-cyclopropyl-6-methoxypyrimidin-5-yl)-5-fluoro-9-(4-(1-isopropyl-4-(trifluoromethyl)-1H-imidazol-2-yl)benzyl)-9H-pyrimido[4,5-b]indole] |
| 5.81 nM | COc1ccc2c3cnc(-c4c(OC)ncnc4C4CC4)nc3n(Cc3ccc(-c4nc(C(F)(F)F)cn4C(C)C)cc3)c2c1 [Compound 7, 2-(4-cyclopropyl-6-methoxypyrimidin-5-yl)-9-(4-(1-isopropyl-4-(trifluoromethyl)-1H-imidazo 1-2-yl)benzyl)-7-methoxy-9H-pyrimido[4,5-b]indole] |
| 4.62 nM | COc1ncnc(C2CC2)c1-c1ncc2c3ccncc3n(Cc3ccc(-c4nc(C(F)(F)F)cn4C(C)C)cc3)c2n1 [Compound 29] |
| 3.57 nM | COc1ncnc(C2CC2)c1-c1ncc2c3cn(C)nc3n(Cc3ccc(-c4nc(C(F)(F)F)cn4C)c(F)c3)c2n1 [Compound 118] |
| 17.8 nM | CCOc1cc(C(F)(F)F)nn1-c1ccc(Cn2c3ccccc3c3cnc(-c4c(OC)ncnc4C4CC4)nc32)cc1 [Compound 10, 2-(4-cyclopropyl-6-methoxypyrimidin-5-yl)-9-(4-(5-ethoxy-3-(trifluoromethyl)-1H-pyrazol-1-yl)benzyl)-9H-pyrimido[4,5-b]indole] |
| 3.5 nM | COc1ncnc(C2CC2)c1-c1ncc2c3cn(C)nc3n(Cc3ccc(-c4nc(C(F)(F)F)c5ccccn45)cc3)c2n1 [Compound 156] |
| 7.38 nM | COc1cc(Cn2c3ccccc3c3cnc(-c4c(OC)ncnc4C4CC4)nc32)ccc1-c1nc(C(F)(F)F)cn1C(C)C [Compound 18] |

| IC50 | Structure (SMILES) |
| --- | --- |
| 4.89 nM | COc1ncnc(C2CC2)c1-c1ncc2c3ccc(P(C)(C)=O)cc3n(Cc3ccc4c(c3)CCCn3cc(C(F)(F)F)nc3-4)c2n1 [Compound 96] |
| 4.39 nM | COc1ncnc(C2CC2)c1-c1ncc2c3ccc(C#N)cc3n(Cc3ccc(-c4nc(C(F)(F)F)cn4C)cc3)c2n1 [Compound 21] |
| 8.25 nM | COc1cc(Cn2c3ccccc3c3cnc(-c4c(OC)ncnc4C4CC4)nc32)cc(F)c1-c1nc(C(F)(F)F)cn1C(C)C [Compound 19] |
| 5.26 nM | COc1ncnc(C2CC2)c1-c1ncc2c3c(C(N)=O)cccc3n(Cc3ccc(-c4nc(C(F)(F)F)cn4C)cc3)c2n1 [Compound 47] |
| 3.14 nM | COc1ncnc(C2CC2)c1-c1ncc2c3ccncc3n(Cc3ccc4c(c3)CCCn3cc(C(F)(F)F)nc3-4)c2n1 [Compound 61] |
| 6.48 nM | COc1ncnc(C2CC2)c1-c1ncc2c3ccnc(F)c3n(Cc3ccc(-c4nc(C(F)(F)F)cn4C)cc3)c2n1 [Compound 116] |
| 36.1 nM | COc1ncnc(C2CC2)c1-c1ncc2c3ccncc3n(Cc3ccc4c(ccn5cc(C(F)(F)F)nc45)c3)c2n1 [Compound 67] |
| 5.95 nM | COc1ncnc(C2CC2)c1-c1ncc2c3ccc(C(N)=O)cc3n(Cc3ccc(-c4nc(C(F)(F)F)cn4C)cc3)c2n1 [Compound 28] |
| 6.2 nM | COc1ncnc(C2CC2)c1-c1ncc2c3ccc(P4(=O)CCCC4)cc3n(Cc3ccc(-c4nc(C(F)(F)F)c5n4CCC5)cc3)c2n1 [Compound 142] |
| 9.95 nM | COc1ncnc(C2CC2)c1-c1ncc2c3cccc(F)c3n(Cc3ccc(-c4nc(C(F)(F)F)cn4C)cc3)c2n1 [Compound 27] |
| 3.26 nM | CC(C)n1ncc(Cl)c1-c1ncc2c3ccccc3n(Cc3ccc(-c4nc(C(F)(F)F)cn4C)cc3)c2n1 [Compound 20] |
| 2.04 nM | CC(C)c1ccccc1-c1ncc2c3ccncc3n(Cc3ccc(-c4nc(C(F)(F)F)cn4C)cc3)c2n1 [Compound 79] |
| 59 nM | CN1CCc2cccc(-c3ncc4c5ccncc5n(Cc5ccc(-c6nc(C(F)(F)F)cn6C)cc5)c4n3)c21 [Compound 84] |
| 9.82 nM | CCn1cc(C(F)(F)F)nc1-c1ccc(Cn2c3nc(-c4c(OC)ncnc4C4CC4)ncc3c3cccc(F)c32)cc1 [Compound 35] |
| 13.7 nM | COc1ncnc(C2CC2)c1-c1ncc2c3cnn(C)c3n(Cc3ccc4c(c3)CCCn3cc(C(F)(F)F)nc3-4)c2n1 [Compound 123] |
| 8.98 nM | COc1ncnc(C2CC2)c1-c1ncc2c3cccnc3n(Cc3ccc(-c4nc(C(F)(F)F)cn4C(C)C)cc3)c2n1 [Compound 36] |
| 36 nM | COc1ncnc(C2CC2)c1-c1ncc2c3ccc(C(O)(C(F)(F)F)C(F)(F)F)cc3n(Cc3ccc(-c4nc(C(F)(F)F)cn4C)cc3)c2n1 [Compound 122] |
| 4.4 nM | COc1ncnc(C2CC2)c1-c1ncc2c3ccc(N4CCOCC4)nc3n(Cc3ccc4c(c3)CCCn3cc(C(F)(F)F)nc3-4)c2n1 [Compound 135] |
| 4.7 nM | COc1ncnc(C2CC2)c1-c1ncc2c3cn[nH]c3n(Cc3ccc(C4NC(C(F)(F)F)=CN4C(C)C)cc3)c2n1 (centres unmarked) [Compound 89] |

| IC50 | Structure (SMILES) |
| --- | --- |
| 5.58 nM | COc1ncnc(C2CC2)c1-c1ncc2c3cccnc3n(Cc3ccc(-c4nc(C(F)(F)F)cn4C)cc3)c2n1 [Compound 53] |
| 6.55 nM | CC(C)c1ncccc1-c1ncc2c3ccncc3n(Cc3ccc(-c4nc(C(F)(F)F)cn4C)cc3)c2n1 [Compound 80] |
| 7.55 nM | COc1ncnc(C2CC2)c1-c1ncc2c3ccccc3n(Cc3ccc(-c4nc(C(F)(F)F)cn4C(C)C)cc3)c2n1 [Compound 2, 2-(4-cyclopropyl-6-methoxypyrimidin-5-yl)-9-(4-(1-isopropyl-4-(trifluoromethyl)-1H-imidazo 1-2-yl)benzyl)-9H-pyrimido[4,5-b]indole] |
| 5 nM | COc1ncnc(C2CC2)c1-c1ncc2c3ccccc3n([C@H](C)c3ccc(-c4nc(C(F)(F)F)cn4C(C)C)cc3)c2n1 [Compound 13-P2] |
| 4.4 nM | CCn1cc(C(F)(F)F)nc1-c1ccc(Cn2c3cc(C(F)(F)F)ccc3c3cnc(-c4c(OC)ncnc4C4CC4)nc32)cc1 [Compound 45] |
| 11.9 nM | COc1ncnc(C2CC2)c1-c1ncc2c3ccc(P4(=O)CCCC4)cc3n(Cc3ccc(-c4nc(C(F)(F)F)cn4C(C)C)cc3)c2n1 [Compound 109] |
| 3.54 nM | COc1ncnc(C2CC2)c1-c1ncc2c3cc(F)cnc3n(Cc3ccc(-c4nc(C(F)(F)F)cn4C)cc3)c2n1 [Compound 117] |
| 3.69 nM | COc1ncnc(C2CC2)c1-c1ncc2c3ccc(F)nc3n(Cc3ccc4c(c3)CCCn3cc(C(F)(F)F)nc3-4)c2n1 [Compound 94] |
| 5.55 nM | COc1ncnc(C2CC2)c1-c1ncc2c3ncccc3n(Cc3ccc(-c4nc(C(F)(F)F)cn4C(C)C)cc3)c2n1 [Compound 3, 2-(4-cyclopropyl-6-methoxypyrimidin-5-yl)-9-(4-(1-isopropyl-4-(trifluoromethyl)-1H-imidazo 1-2-yl)benzyl)-9H-pyridino[2′,3′: 4,5]pyrrolo[2,3-d]pyrimidine] |
| 4.32 nM | COc1ncnc(C2CC2)c1-c1ncc2c3ccc(S(C)(=O)=O)cc3n(Cc3ccc(-c4nc(C(F)(F)F)cn4C(C)C)cc3)c2n1 [Compound 14] |
| 1.97 nM | COc1ncnc(C2CC2)c1-c1ncc2c3cn(C)nc3n(Cc3ccc(-c4nc(C(F)(F)F)c5n4CCCC5)cc3)c2n1 [Compound 120] |
| 42.9 nM | COc1ncnc(C2CC2)c1-c1ncc2c3cccnc3n(Cc3ccc4c(c3)Cn3cc(C(F)(F)F)nc3-4)c2n1 [Compound 72] |
| 14.8 nM | COc1ncnc(C2CC2)c1-c1ncc2c3cnccc3n(Cc3ccc(-c4nc(C(F)(F)F)cn4C)cc3)c2n1 [Compound 57] |
| 4.56 nM | COc1ncnc(C2CC2)c1-c1ncc2c3cnn(C)c3n(Cc3ccc(-c4nc(C(F)(F)F)cn4C(C)C)cc3)c2n1 [Compound 106] |
| 4.45 nM | COc1ncnc(C2CC2)c1-c1ncc2c3ccc(N(C)S(C)(=O)=O)cc3n(Cc3ccc(-c4nc(C(F)(F)F)cn4C)cc3)c2n1 [Compound 82] |
| 11.6 nM | COc1ncnc(C2CC2)c1-c1ncc2c3cc(F)cnc3n(Cc3ccc4c(c3)CCCn3cc(C(F)(F)F)nc3-4)c2n1 [Compound 146] |
| 12.1 nM | COc1ncnc(C2CC2)c1-c1ncc2c3ccc(C(C)(C)O)cc3n(Cc3ccc(-c4nc(C(F)(F)F)cn4C)cc3)c2n1 [Compound 38] |
| 1.34 nM | COc1ncnc(C2CC2)c1-c1ncc2c3ccc(N4CC(O)C4)nc3n(Cc3ccc4c(c3)CCCn3cc(C(F)(F)F)nc3-4)c2n1 [Compound 136] |
